The values that follow come from patent publication US7541367B2, “3-benzoimidazolyl-pyrazolopyridines useful in treating kinase disorders” (Janssen Pharmaceutica, N.V., priority 2005, dated 2009).

The test system of assay [1] is HeLa cervical adenocarcinoma. Put plainly: Cell Proliferation Inhibition Assay (14C-thymidine incorporation), HeLa.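 Note: test compound in DMSO added to cells seeded in scintillating 96-well plates, DMSO-only wells as control, uptake of methyl 14C-thymidine into new DNA counted.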 Type of assay: cell-based. Conditions: Homo sapiens, HeLa cells. (Dividing cells build labelled thymidine or BrdU into new DNA.)
The next assay deals with T1, CDK1 (Homo sapiens, UniProt P06493).
T1 construct: purchased New England Biolabs, Beverly, Mass; 6020; host or cells: insect cells
T1 sequence (P06493 whole entry): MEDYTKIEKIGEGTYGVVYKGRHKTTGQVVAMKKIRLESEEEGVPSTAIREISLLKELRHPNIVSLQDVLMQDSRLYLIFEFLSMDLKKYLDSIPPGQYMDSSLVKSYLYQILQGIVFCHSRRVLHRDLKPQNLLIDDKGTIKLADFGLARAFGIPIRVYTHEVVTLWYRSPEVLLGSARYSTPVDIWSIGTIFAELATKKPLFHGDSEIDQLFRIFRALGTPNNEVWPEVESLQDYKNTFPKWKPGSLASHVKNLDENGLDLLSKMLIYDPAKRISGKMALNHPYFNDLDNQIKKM
T1 sequence (P14635 whole entry partner): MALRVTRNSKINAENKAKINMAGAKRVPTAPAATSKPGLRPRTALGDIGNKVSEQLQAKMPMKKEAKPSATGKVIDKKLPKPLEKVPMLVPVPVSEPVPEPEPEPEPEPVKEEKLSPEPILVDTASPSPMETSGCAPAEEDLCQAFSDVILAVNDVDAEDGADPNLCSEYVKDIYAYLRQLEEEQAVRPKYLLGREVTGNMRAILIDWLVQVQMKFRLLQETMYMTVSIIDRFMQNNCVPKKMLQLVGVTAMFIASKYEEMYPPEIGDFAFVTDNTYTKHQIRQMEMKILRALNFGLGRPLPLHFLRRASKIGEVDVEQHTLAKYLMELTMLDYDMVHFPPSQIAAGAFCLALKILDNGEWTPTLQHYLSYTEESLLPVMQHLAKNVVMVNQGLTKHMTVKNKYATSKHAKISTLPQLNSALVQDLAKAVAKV
Briefly: CDK-1 kinase screening assay (33P-ATP FlashPlate). Type of assay: biochemical. The conditions noted are these: human CDK1 with cyclin B; 10 μM ATP; 1 hr at 30° C.

A further assay has as its target T2, HER2 (Homo sapiens, UniProt P04626).
T2 construct: GST (Glutathione-S-Transferase) (N); HIS6 (N); thrombin cleavage site (N); purchased Proqinase, Freiburg, Germany
Put plainly: HER2 kinase screening assay (33P-ATP FlashPlate).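 Note: Biotin-poly(GT) 4:1 peptide captured on streptavidin FlashPlate, 33P transfer from γ-ATP read by scintillation counting, lower incorporation means inhibition, 1% DMSO final, 100 µL reaction.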 Type of assay: biochemical. The conditions noted are these: GST-HIS6 HER-2 aa 679 to 1255; 10 μM ATP; 1 hr at 30° C.

Another assay has as its target T3, c-Src kinase (Homo sapiens, UniProt P12931).
T3 construct: purchased Upstate Biotechnology, Lake Placid, N.Y
Put plainly: c-Src Kinase Assay. The conditions noted are these: 5 μM ATP. In kind it is biochemical. The method, then:
A mixture of a 10× kinase buffer (80 mM MOPS at pH 7.0, 2 mM EDTA and 100 mM Magnesium Chloride), ATP (5 μM final from a 10 mM stock), a Cdc2 peptide […] (100 μM final from a 2.5 mM stock), γ-^33P ATP (10 μCi/μL stock) and water (for a total of 20 μL/well) was added to each well of a Streptavidin Flashplate.
Test compound in 100% DMSO (0.5 μL) was added to the appropriate wells. Diluted c-Src kinase (human) (Accession Number SWISS-PROT P12931) (Upstate Biotechnology, Lake Placid, N.Y.) (diluted in a buffer consisting of 20 mM MOPS at pH 7.0, 1 mM EDTA, β-mercaptoethanol (0.1%), Brij-35 (0.01%), glycerol (5%), and 1 mg/mL bovine serum albumin) (2.5 μL) was added to the wells to initiate the reactions. The reaction plates were incubated at 30° C. for 40 min. The reaction was terminated by the addition of a 3% phosphoric acid solution (5 μL). The reaction product (10 μL) was spotted onto a P30 filtermat and washed for 5 minutes in phosphoric acid (75 mM). The wash sequence was repeated two more times, followed with one final wash in methanol. The plates were then dried, sealed and read on the TopCount scintillation counter after adding 30 μL scintillation fluid.
(§1) A maximum and minimum signal for the assay was determined on each plate. The percent inhibition of a test compound was calculated according to the formula: […]
For a series of test concentrations, the IC50 was derived by graphing percent inhibition against the log of the concentrations tested for a given compound with results shown in Table 2
(§2) For compounds with multiple values, each value represents a separate assay result.

The next assay concerns HCT-116 colon carcinoma. Put plainly: Cell Proliferation Inhibition Assay (14C-thymidine incorporation), HCT-116.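 Note: proliferation measured as methyl 14C-thymidine uptake into new DNA, counted in 96-well scintillating microplates, compared with DMSO-only control wells.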 In kind it is cell-based.
A further assay concerns A375 malignant melanoma. Briefly: Cell Proliferation Inhibition Assay (14C-thymidine incorporation), A375.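 Note: proliferation measured by radiolabelled thymidine uptake into new DNA, counted in scintillating 96-well plates, compound-treated wells compared with DMSO-only control wells.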 Type of assay: cell-based. The conditions noted are these: Homo sapiens, A-375, A375 cells.
Another assay has as its target T4, Lyn kinase (Homo sapiens, UniProt P07948).
T4 construct: purchased Upstate Biotechnology, Lake Placid, N.Y
Put plainly: Lyn Kinase Assay. In kind it is biochemical. The conditions noted are these: 5 μM ATP. The method, then: Test compound in 100% DMSO (0.5 μL) was added to the appropriate wells. Diluted Lyn kinase (human) (Accession Number EMBL M16038) (Upstate Biotechnology, Lake Placid, N.Y.) (diluted in a buffer consisting of 50 mM Tris at pH 7.5, 0.1 mM EGTA, Sodium Vanadate (0.1 mM), β-mercaptoethanol (0.1%) and 1 mg/mL bovine serum albumin) (2.5 μL) was added to the wells to initiate the reactions.
The reaction plates were incubated at 30° C. for 40 min. The reaction was terminated by the addition of a 3% phosphoric acid solution (5 μL). The reaction product (10 μL) was spotted onto a P30 filtermat and washed for 5 minutes in phosphoric acid (75 mM). The wash sequence was repeated two more times, followed with one final wash in methanol. The plates were then dried, sealed and read on the TopCount scintillation counter after adding 30 μL scintillation fluid.
as §1
For a series of test concentrations, the IC50 was derived by graphing percent inhibition against the log of the concentrations tested for a given compound with results shown in Table 3
as §2

A further assay addresses T5, Aurora-A (Mus musculus, UniProt P97477).
T5 construct: polyhistidine (N)
T5 sequence (P97477 1-395): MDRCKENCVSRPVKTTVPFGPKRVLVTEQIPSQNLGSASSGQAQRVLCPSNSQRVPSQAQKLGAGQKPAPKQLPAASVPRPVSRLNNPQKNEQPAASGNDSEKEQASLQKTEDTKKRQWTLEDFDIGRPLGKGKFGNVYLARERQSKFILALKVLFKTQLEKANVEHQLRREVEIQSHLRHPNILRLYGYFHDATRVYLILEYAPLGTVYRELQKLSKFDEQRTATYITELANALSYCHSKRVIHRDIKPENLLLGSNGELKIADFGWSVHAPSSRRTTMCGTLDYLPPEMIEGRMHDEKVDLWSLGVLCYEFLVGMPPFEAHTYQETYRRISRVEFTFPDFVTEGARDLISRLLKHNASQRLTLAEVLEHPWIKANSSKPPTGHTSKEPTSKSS
Briefly: Aurora-A kinase screening assay (33P-ATP FlashPlate).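 Note: His-tagged mouse Aurora-A phosphorylating a biotinylated peptide captured on streptavidin plates, read as 33P uptake by scintillation counting, 1% DMSO, inhibition scaled between per-plate maximum and minimum signals.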 Conditions: 10 μM ATP, 1 hr at 30° C. Type of assay: biochemical.

A further assay deals with T6, VEGF-R2 (Rattus norvegicus, UniProt O08775).
T6 construct: polyhistidine (N)
T6 sequence (O08775 786-1343): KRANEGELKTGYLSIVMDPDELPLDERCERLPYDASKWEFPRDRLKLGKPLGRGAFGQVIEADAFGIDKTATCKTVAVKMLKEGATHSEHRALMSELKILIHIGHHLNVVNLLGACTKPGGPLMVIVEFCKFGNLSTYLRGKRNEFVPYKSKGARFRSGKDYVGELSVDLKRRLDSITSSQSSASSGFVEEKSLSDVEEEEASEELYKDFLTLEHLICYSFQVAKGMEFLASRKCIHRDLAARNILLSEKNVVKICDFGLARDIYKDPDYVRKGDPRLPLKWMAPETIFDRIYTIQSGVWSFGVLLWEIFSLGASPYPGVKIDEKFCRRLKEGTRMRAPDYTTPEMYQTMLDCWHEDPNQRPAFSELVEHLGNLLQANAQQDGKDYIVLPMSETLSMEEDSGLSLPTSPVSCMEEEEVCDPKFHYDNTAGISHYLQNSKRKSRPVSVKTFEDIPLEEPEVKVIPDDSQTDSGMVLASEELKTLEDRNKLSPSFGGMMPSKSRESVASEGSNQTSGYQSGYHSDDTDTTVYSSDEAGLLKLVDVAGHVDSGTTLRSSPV
Put plainly: VEGF-R2 kinase screening assay (33P-ATP FlashPlate).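 Note: Read-out is ³³P incorporation from ³³P-γ-ATP into biotinylated peptide substrate captured on streptavidin FlashPlate, counted by scintillation, 1% DMSO final, inhibition scaled between per-plate maximum and minimum signals.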 In kind it is biochemical. The conditions noted are these: rat VEGF-R2 kinase domain; 10 μM ATP; 1 hr at 30° C.

[2] abbreviates: Homo sapiens, HCT-116, HCT-116 cells.

The structures appear in SMILES notation. Values joined by “and” are separate entries in the source; they are usually repeats but may differ in a detail not shown here. Identical values can stand only once. Where only a bound is given, the exact number is not on record here.

T3 sequence (P12931 whole entry): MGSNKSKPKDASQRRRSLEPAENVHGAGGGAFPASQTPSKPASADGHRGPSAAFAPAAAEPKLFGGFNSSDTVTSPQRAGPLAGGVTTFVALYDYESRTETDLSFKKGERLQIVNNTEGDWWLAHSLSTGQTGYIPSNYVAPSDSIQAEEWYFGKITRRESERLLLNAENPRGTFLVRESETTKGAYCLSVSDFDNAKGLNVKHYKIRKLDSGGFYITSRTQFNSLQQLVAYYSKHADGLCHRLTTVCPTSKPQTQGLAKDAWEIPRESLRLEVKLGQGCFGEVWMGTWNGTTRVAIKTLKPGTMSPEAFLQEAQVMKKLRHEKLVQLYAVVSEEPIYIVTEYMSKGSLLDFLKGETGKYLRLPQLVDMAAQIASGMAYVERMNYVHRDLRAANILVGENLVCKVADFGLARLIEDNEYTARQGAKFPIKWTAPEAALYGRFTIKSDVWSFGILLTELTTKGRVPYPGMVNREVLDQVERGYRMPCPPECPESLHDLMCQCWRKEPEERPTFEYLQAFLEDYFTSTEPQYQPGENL
T2 sequence (P04626 679-1255): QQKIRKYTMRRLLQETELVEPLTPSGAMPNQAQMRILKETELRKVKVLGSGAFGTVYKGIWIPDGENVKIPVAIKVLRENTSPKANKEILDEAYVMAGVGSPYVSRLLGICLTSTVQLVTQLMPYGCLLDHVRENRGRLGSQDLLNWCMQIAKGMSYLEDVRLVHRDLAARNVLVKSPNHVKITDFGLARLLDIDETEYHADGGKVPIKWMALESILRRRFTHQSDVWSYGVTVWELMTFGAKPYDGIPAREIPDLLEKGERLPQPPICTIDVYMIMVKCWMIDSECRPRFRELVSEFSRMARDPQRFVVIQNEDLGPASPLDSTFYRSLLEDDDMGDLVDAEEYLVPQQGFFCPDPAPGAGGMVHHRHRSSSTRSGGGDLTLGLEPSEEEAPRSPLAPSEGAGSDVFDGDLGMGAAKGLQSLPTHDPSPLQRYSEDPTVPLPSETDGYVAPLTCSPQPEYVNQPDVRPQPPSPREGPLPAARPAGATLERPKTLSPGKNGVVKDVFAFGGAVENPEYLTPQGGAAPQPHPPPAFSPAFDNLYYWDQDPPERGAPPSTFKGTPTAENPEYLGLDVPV
T4 sequence (P07948 whole entry): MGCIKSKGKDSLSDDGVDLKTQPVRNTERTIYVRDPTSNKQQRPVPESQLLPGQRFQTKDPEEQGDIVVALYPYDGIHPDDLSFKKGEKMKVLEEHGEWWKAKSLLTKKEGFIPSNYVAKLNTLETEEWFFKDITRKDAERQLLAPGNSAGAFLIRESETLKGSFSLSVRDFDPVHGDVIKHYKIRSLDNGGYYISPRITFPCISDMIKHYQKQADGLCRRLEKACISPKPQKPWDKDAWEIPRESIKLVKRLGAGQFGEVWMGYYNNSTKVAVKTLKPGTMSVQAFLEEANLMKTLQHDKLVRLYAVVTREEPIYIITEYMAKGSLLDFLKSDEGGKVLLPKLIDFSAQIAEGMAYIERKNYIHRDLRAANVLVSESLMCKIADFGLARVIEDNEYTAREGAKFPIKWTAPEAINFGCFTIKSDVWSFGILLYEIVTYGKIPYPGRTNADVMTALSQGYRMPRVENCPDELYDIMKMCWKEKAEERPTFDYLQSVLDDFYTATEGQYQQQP

For the compound `CN1CCN(c2ccc3[nH]c(-c4n[nH]c5ncc(-c6cncc7ccccc67)cc45)nc3c2)CC1` [Cpd 31, 4-{3-[5-(4-methyl-piperazin-1-yl)-1H-benzoimidazol-2-yl]-1H-pyrazolo[3,4-b]pyridin-5-yl}-isoquinoline], the IC50 (in general, the midpoint of a concentration-inhibition curve) in assay [1] was found to be 455 nM; on CDK1 it was 13.6 nM; against HER2, 6510 nM; on c-Src kinase, 4.21 nM; in the assay with HCT-116 colon carcinoma (Homo sapiens, HCT-116 cells), 355 nM; in the assay with A375 malignant melanoma, 165 nM. Besides, at Lyn kinase, inhibition was half-maximal at 3.87 nM (IC50).

In the case of `O=C(NC1CC1)c1cccc2[nH]c(-c3n[nH]c4ncc(-c5cncc6ccccc56)cc34)nc12` [Cpd 47, 2-(5-isoquinolin-4-yl-1H-pyrazolo[3,4-b]pyridin-3-yl)-1H-benzoimidazole-4-carboxylic acid cyclopropylamide], the IC50 was 57.2 nM on Aurora-A; 12.2 nM in assay [1] (HeLa); 149 nM against VEGF-R2; 1.59 nM against CDK1; roughly 10000 nM against HER2; 0.635 nM on c-Src kinase. Also, the values for the IC50 with HCT-116 colon carcinoma (setting [2]), with A375 malignant melanoma and at Lyn kinase were 31.3 nM, 12.9 nM and 2.28 nM, respectively.

`c1ccc2c(-c3cnc4[nH]nc(-c5nc6cc(N7CCOCC7)ccc6[nH]5)c4c3)cncc2c1` [Cpd 51, 4-[3-(5-morpholin-4-yl-1H-benzoimidazol-2-yl)-1H-pyrazolo[3,4-b]pyridin-5-yl]-isoquinoline]: the IC50 on Aurora-A was 41.5 nM; in assay [1] (HeLa), 401 nM; on VEGF-R2 it was 1080 nM; on CDK1, 8.55 nM; against HER2, greater than 100000 nM; on c-Src kinase it was 2.82 nM. In addition, the IC50 with HCT-116 colon carcinoma (setting [2]) is 376 nM; with A375 malignant melanoma, 297 nM; on Lyn kinase, 5 nM.

As to `COCc1cccc2[nH]c(-c3n[nH]c4ncc(-c5cncc(CN6CCOCC6)c5)cc34)nc12` [Cpd 54, 3-(4-methoxymethyl-1H-benzoimidazol-2-yl)-5-(5-morpholin-4-ylmethyl-pyridin-3-yl)-1H-pyrazolo[3,4-b]pyridine], the IC50 is 3260 nM and 4640 nM at Aurora-A; 1880 nM and 1570 nM at VEGF-R2; 177 nM and 343 nM at CDK1; greater than 100000 nM against HER2; 143 nM against c-Src kinase; 63.5 nM in the assay with HCT-116 colon carcinoma (HCT-116 cells). For the same compound, the IC50 with HCT-116 colon carcinoma (setting [2]) amounted to 33.6 nM; against Lyn kinase, 578 nM.

For the compound `COCc1cccc2[nH]c(-c3n[nH]c4ncc(-c5cncc(CN(C)C)c5)cc34)nc12` [Cpd 55, {5-[3-(4-methoxymethyl-1H-benzoimidazol-2-yl)-1H-pyrazolo[3,4-b]pyridin-5-yl]-pyridin-3-ylmethyl}-dimethyl-amine], the IC50 was 3750 nM at Aurora-A; 1230 nM in [1] (HeLa); 1600 nM on VEGF-R2; 124 nM against CDK1; greater than 100000 nM at HER2; 143 nM on c-Src kinase. Also, the IC50 in the assay with HCT-116 colon carcinoma (setting [2]) was 186 nM; with A375 malignant melanoma, 330 nM; at Lyn kinase, 578 nM.

In the case of `CNCc1cncc(-c2cnc3[nH]nc(-c4nc5cc(N6CCN(C)CC6)ccc5[nH]4)c3c2)c1` [Cpd 81, methyl-(5-{3-[5-(4-methyl-piperazin-1-yl)-1H-benzoimidazol-2-yl]-1H-pyrazolo[3,4-b]pyridin-5-yl}-pyridin-3-ylmethyl)-amine], the IC50 against Aurora-A was determined as 173 nM; in [1], 444 nM; against VEGF-R2 it was 35.9 nM; at CDK1 it was 3.04 nM; at HER2, 715 nM; at c-Src kinase, 225 nM. For the same compound, the concentration for half-maximal inhibition (IC50) with HCT-116 colon carcinoma (Homo sapiens, HCT-116 cells) was 600 nM; with A375 malignant melanoma, 768 nM; against Lyn kinase it was 170 nM.

Consider `CC(C)NCc1cncc(-c2cnc3[nH]nc(-c4nc5cc(N6CCN(C)CC6)ccc5[nH]4)c3c2)c1` [Cpd 83, isopropyl-(5-{3-[5-(4-methyl-piperazin-1-yl)-1H-benzoimidazol-2-yl]-1H-pyrazolo[3,4-b]pyridin-5-yl}-pyridin-3-ylmethyl)-amine], for which the IC50 worked out at 263 nM against Aurora-A; 1450 nM in [1] (HeLa); 73.4 nM against VEGF-R2; 7.67 nM against CDK1; 1490 nM against HER2; 6.63 nM against c-Src kinase. Moreover, the IC50 in the assay on HCT-116 colon carcinoma (setting [2]) came to 1500 nM; with A375 malignant melanoma, 1060 nM; against Lyn kinase, 2.43 nM.

With `COc1ccc2nc(-c3n[nH]c4ncc(-c5cccnc5)cc34)[nH]c2c1` [Cpd 90, 3-(6-methoxy-1H-benzoimidazol-2-yl)-5-pyridin-3-yl-1H-pyrazolo[3,4-b]pyridine], the IC50 on Aurora-A worked out at 279 nM; in [1] (HeLa), 418 nM; at VEGF-R2, 316 nM; at CDK1, 2.74 nM; on c-Src kinase, 56.7 nM; in the assay on HCT-116 colon carcinoma (setting [2]), 299 nM. Moreover, the IC50 is 371 nM in the assay on A375 malignant melanoma and 69.4 nM at Lyn kinase.

With `Fc1ccc2nc(-c3n[nH]c4ncc(-c5cccnc5)cc34)[nH]c2c1` [Cpd 92, 3-(6-fluoro-1H-benzoimidazol-2-yl)-5-pyridin-3-yl-1H-pyrazolo[3,4-b]pyridine], the IC50 in assay [1] (HeLa) was 698 nM; on CDK1 it was 6.57 nM; against c-Src kinase, 97.9 nM; with HCT-116 colon carcinoma (setting [2]) it was 348 nM; in the assay on A375 malignant melanoma it was 467 nM; at Lyn kinase, greater than 100000 nM.

As to `CNCc1cncc(-c2cnc3[nH]nc(-c4nc5ccc(OC)cc5[nH]4)c3c2)c1` [Cpd 97, {5-[3-(6-methoxy-1H-benzoimidazol-2-yl)-1H-pyrazolo[3,4-b]pyridin-5-yl]-pyridin-3-ylmethyl}-methyl-amine], the IC50 in [1] turned out to be 61.4 nM; on CDK1, 0.9 nM; on HER2, 1450 nM; against c-Src kinase it was 16.4 nM; with HCT-116 colon carcinoma (Homo sapiens, HCT-116 cells), 61.5 nM; in the assay with A375 malignant melanoma it was 164 nM. In addition, on Lyn kinase, the midpoint of inhibition, the IC50, lay at 4.29 nM.
